The values that follow come from US20250304566A1, “CRYSTALLINE FORMS OF (5S)-3-[3-(3-CHLORO-2-FLUOROPHENOXY)-6-METHYLPYRIDAZIN-4-YL]-5-(2-CHLORO-4-METHYLBENZYL)-5,6-DIHYDRO-4H-1,2,4-OXADIAZINE” (priority 2022, published 2025).

The chromatographic logP is a lipophilicity value derived from retention on a column.

Common to all, as to assay type: physicochemical
Data set [1] is described as follows: Measurement of Log P values by HPLC on reversed phase columns (EEC directive 79/831 Annex V.A8). The following applies: reversed phase HPLC column, acidic range, 0.1% formic acid in water and acetonitrile. How it is done: Measurement of Log P values Measurement of Log P values as provided herein was performed according to EEC directive 79/831 Annex V.A8 by HPLC (High Performance Liquid Chromatography) on reversed phase columns with method determined by measurement of LC-UV, in an acidic range, with 0.1% formic acid in water and acetonitrile as eluent (linear gradient from 10% acetonitrile to 95% acetonitrile). Calibration was done with straight-chain alkan2-ones (with 3 to 16 carbon atoms) with known Log P values (measurement of Log P values using retention times with linear interpolation between successive alkanones). Lambda-max-values were determined using UV-spectra from 200 nm to 400 nm and the peak values of the chromatographic signals

Data set [2] is described as follows: Transition temperature between polymorphic forms A and B (temperature-depending XRPD). The following applies: for phase change temperature: temperature-depending XRPD. How it is done: To obtain crystals of polymorphic form A, a temperature-depending X-ray powder diffraction (XRPD) experiment was performed, in which recrystallization was allowed at different temperatures.

Data set [3] can be described thus: Slurry experiment (polymorph obtained, XRPD). As to conditions: for Mod. obtained: 8 days. How it is done: Compound of formula (I) was suspended in the respective solvent and stirred at 0° C., 40° C. (Mya4 stirrer station at 250 u/min) and 80° C. After three to eight days, an additional amount of solvent was added to the suspensions. In two experiments additional substance were added after four days. After eight days the suspensions were dried at ambient conditions.
The obtained crystals were isolated and analyzed by X-ray powder diffraction (XRPD) spectrometry, DSC and TGA.

For the molecule `Cc1ccc(C[C@H]2CON=C(c3cc(C)nnc3Oc3cccc(Cl)c3F)N2)c(Cl)c1` [compound of formula (I), (5S)-3-[3-(3-chloro-2-fluorophenoxy)-6-methylpyridazin-4-yl]-5-(2-chloro-4-methylbenzyl)-5,6-dihydro-4H-1,2,4-oxadiazine], in data set [1], the chromatographic logP was determined as 3.88.

Consider `Cc1ccc(C[C@H]2CON=C(c3cc(C)nnc3Oc3cccc(Cl)c3F)N2)c(Cl)c1` [polymorphic form A, (5S)-3-[3-(3-chloro-2-fluorophenoxy)-6-methylpyridazin-4-yl]-5-(2-chloro-4-methylbenzyl)-5,6-dihydro-4H-1,2,4-oxadiazine], for which the thermodynamic stability result in data set [2] (at lower temperatures) was “very fast transition to polymorphic form B”. For the same molecule, the phase change temperature was 40 °C in data set [2] (on cooling) and 60 °C in data set [2] (on heating).

For the molecule `Cc1ccc(C[C@H]2CON=C(c3cc(C)nnc3Oc3cccc(Cl)c3F)N2)c(Cl)c1` [polymorphic form B, (5S)-3-[3-(3-chloro-2-fluorophenoxy)-6-methylpyridazin-4-yl]-5-(2-chloro-4-methylbenzyl)-5,6-dihydro-4H-1,2,4-oxadiazine], the Mod. obtained result in data set [3] (Exp. No. 1: Mod. B used, CH3CN, 0 °C) is listed as “Mod. B”; in data set [3] (Exp. No. 2: Mod. B used, CH3CN, 40 °C), “Mod. B”; in data set [3] (Exp. No. 3: Mod. B used, CH3CN/water, 80 °C) it was “Mod. B”; in data set [3] (Exp. No. 4: Mod. B used, Ethanol/water (1:1), 0 °C), “Mod. B”; in data set [3] (Exp. No. 5: Mod. B used, Ethanol/water (1:1), 40 °C) it was “Mod. B”; in data set [3] (Exp. No. 6: Mod. B used, Ethanol/water (1:1), 80 °C), “Mod. B”. Also, the “stability in slurry experiments: recrystallization events” value in data set [3] (above the transition temperature range over an extended period of time) is listed as “No recrystallization events were observed”. The thermodynamic stability result in data set [2] (below the transition temperatures (49° C. to 66° C.)) is recorded as “thermodynamically stable polymorph”.
